Laboratory results published in patent publication US12145947B2, “Pyrimidine based modulators and uses thereof” (Quanta Therapeutics, Inc., priority 2022, dated 2024).

What was measured:
[1] = system: GP2D cells (KRAS G12D), phospho-ERK; assay: pERK In Cell Western (ICW) assay, GP2D cells; type: cell-based; conditions: Table 4, 3 hours
Procedure, shortened: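 GP2D (10,000 cells/well) and AGS (5,000 cells/well) cells were treated for 3 h at 37 °C with a 10-point, ½-log dilution series (top […]). They were then fixed and immunostained for phospho-ERK. pERK signal was normalised to DRAQ5 and expressed as % of DMSO, with IC50 from a 4-parameter fit.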

[2] = molecular target: T1, GST-tagged KRAS-G12D (2-169) (Homo sapiens, UniProt P01116, G12D); assay: Nucleotide exchange assay (NEA), SOS-mediated, HTRF, KRAS G12D; type: biochemical; conditions: Table 4; IC50 extracted at 30 min
T1 construct: GST-tagged KRAS-G12D (2-169, Reaction Biology, MSC-11-539); purchased Reaction Biology MSC-11-539 (KRAS G12D); MSC-11-502 (SOS1cat)
Procedure, shortened: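 IC50 values come from 4-parameter fits at the 30 min time point of an SOS-driven exchange read by HTRF, normalised to DMSO (0%) and SOS-free blank (100%). Final reaction: 5 nM GST-KRAS-G12D (2-169), 20 nM SOScat, 150 nM fluorescent GTP-DY-647P1, after 1 h RT compound preincubation with KRAS and Tb-cryptate anti-GST.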

T1 sequence (P01116 2-169 isoform P01116-2 G12D): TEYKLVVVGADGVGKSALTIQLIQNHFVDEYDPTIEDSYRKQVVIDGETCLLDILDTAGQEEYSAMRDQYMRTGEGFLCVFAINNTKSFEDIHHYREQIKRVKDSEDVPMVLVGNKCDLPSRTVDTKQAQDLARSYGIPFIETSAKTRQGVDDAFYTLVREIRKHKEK

SMILES	IC50 [1]	IC50 [2]
CN(C)C(=O)c1cc2n(n1)CCCN(c1nc(OC[C@@]34CCCN3C[C@H](F)C4)nc(N3CC4(CCc5sc(N)c(C#N)c54)C3)c1C#N)C2 [Compound 8, 5-[6-(2-amino-3-cyano-spiro[5,6-dihydrocyclopenta[b]thiophene-4,3′-azetidine]-1′-yl)-5-cyano-2-[[(2R,8S)-2-fluoro-1,2,3,5,6,7-hexahydropyrrolizin-8-yl]methoxy]pyrimidin-4-yl]-N,N-dimethyl-4,6,7,8-tetrahydropyrazolo[1,5-a][1,4]diazepine-2-carboxamide]	1 to 10 nM	< 10 nM
N#Cc1c(N2C[C@H]3CC[C@@H](C2)N3)nc(OCc2ccccc2)nc1N1CC2(CCc3sc(N)c(C#N)c32)C1 [Compound 76, 2-amino-1′-[2-benzyloxy-5-cyano-6-[(1R,5S)-3,8-diazabicyclo[3.2.1]octan-3-yl]pyrimidin-4-yl]spiro[5,6-dihydrocyclopenta[b]thiophene-4,3′-azetidine]-3-carbonitrile]	10 to 100 nM	< 10 nM
C=C1CN2CCCC2(COc2nc(N3CCCn4nc(C(=O)N(C)C)c(Cl)c4C3)c(C#N)c(N3CC4(CCc5sc(N)c(C#N)c54)C3)n2)C1 (stereo not shown) [Compound 93, 5-[6-(2-amino-3-cyano-spiro[5,6-dihydrocyclopenta[b]thiophene-4,3′-azetidine]-1′-yl)-5-cyano-2-[(6-methylene-2,3,5,7-tetrahydro-1H-pyrrolizin-8-yl)methoxy]pyrimidin-4-yl]-3-chloro-N,N-dimethyl-4,6,7,8-tetrahydropyrazolo[1,5-a][1,4]diazepine-2-carboxamide]	1 to 10 nM	< 10 nM
C=C1CN2CCCC2(COc2nc(N3C[C@H]4CC[C@@H](C3)N4)c(C#N)c(N3CC4(CCc5sc(N)c(C#N)c54)C3)n2)C1 (stereo partly drawn) [Compound 94, 2-amino-1′-[5-cyano-2-[(6-methylene-2,3,5,7-tetrahydro-1H-pyrrolizin-8-yl)methoxy]-6-[(1R,5S)-3,8-diazabicyclo[3.2.1]octan-3-yl]pyrimidin-4-yl]spiro[5,6-dihydrocyclopenta[b]thiophene-4,3′-azetidine]-3-carbonitrile]	1 to 10 nM	< 10 nM
CN(C)CC1(COc2nc(N3C[C@H]4CC[C@@H](C3)N4)c(C#N)c(N3CC4(CCc5sc(N)c(C#N)c54)C3)n2)COC1 [Compound 52, 2-amino-1′-[5-cyano-6-[(1R,5S)-3,8-diazabicyclo[3.2.1]octan-3-yl]-2-[[3-[(dimethylamino)methyl]oxetan-3-yl]methoxy]pyrimidin-4-yl]spiro[5,6-dihydrocyclopenta[b]thiophene-4,3′-azetidine]-3-carbonitrile]	1 to 10 nM	< 10 nM
N#Cc1c(N2CCCC(=O)CC2)nc(OC[C@@]23CCCN2C[C@H](F)C3)nc1N1CC2(CCc3sc(N)c(C#N)c32)C1 [Compound 49, 2-amino-1′-[5-cyano-2-[[(2R,8S)-2-fluoro-1,2,3,5,6,7-hexahydropyrrolizin-8-yl]methoxy]-6-(4-oxoazepan-1-yl)pyrimidin-4-yl]spiro[5,6-dihydrocyclopenta[b]thiophene-4,3′-azetidine]-3-carbonitrile]	100 to 1000 nM	10 to 100 nM
N#Cc1c(N2C[C@H]3CC[C@@H](C2)N3)nc(OCC2(CN3CCOCC3)CC2)nc1N1CC2(CCc3sc(N)nc32)C1 [Compound 23, 4-(2-aminospiro[5,6-dihydrocyclopenta[d]thiazole-4,3′-azetidine]-1′-yl)-2-[[1-(morpholinomethyl)cyclopropyl]methoxy]-6-[(1R,5S)-3,8-diazabicyclo[3.2.1]octan-3-yl]pyrimidine-5-carbonitrile]	10 to 100 nM	< 10 nM
Cn1c(-c2nn3c(c2Cl)CN(c2nc(OC[C@@]45CCCN4C[C@H](F)C5)nc(N4CC5(CCc6sc(N)c(C#N)c65)C4)c2C#N)CCC3)nc2ccccc21 [Compound 30]	10 to 100 nM	< 10 nM
